Read-outs that look alike come from different tables or passages of the source. Where only a bound is given, the exact number is not on record here.

The mortality is the percentage killed. In general, EC50 refers to the concentration that produces a half-maximal response.

For assay [1], the system named is adult Ctenocephalides felis fleas. Kind of assay: Ingestion activity (flea membrane feeding, blood feeding) against adult Ctenocephalides felis. Particulars: Ctenocephalides felis. From the text:
Example 6: Screening Method to Test Ingestion Activity of Compounds of Formula (I) Against Adult Ctenocephalides felis
(§1) The four structurally closest prior art compounds (A), (B), (C) and (D) specifically excluded from the scope of formula (I) were characterized vis-a-vis selected compounds of formula (I) with regard to their potency in in vitro screening assays against fleas (Ctenocehalides felis) and ticks (Rhipicephalus sanguineus).
It is important to note that compounds that show better activity versus ticks are more desirable in the animal health field, as ticks are more difficult to control than fleas. Noteworthy, in particular with regard to fleas the illustrated comparative data are based on a flea membrane feeding (ingestion, blood feeding) assay. Data from this assay are more relevant for compounds intended to be delivered systemically to an animal via oral or injectable routes. Membrane feeding assays differ to primary screening laboratory contact assays in that the latter only measure the effect of the direct contact of selected compounds on the parasite, such as the flea or the tick. The information derived from laboratory contact assays is strictly limited to the ability of the compound to be absorbed through the parasite surface and to reach its molecular target, and no information can be gleaned from these contact assays as to whether the compound would also be active when presented orally to the ectoparasite itself in a blood meal, such as with the membrane feeding assay, and certainly not when administered orally to an animal host (e.g. “in vivo”) with subsequent exposure to the ectoparasite.
(§2) However, as explained above, spectrum of action against this range of species (i.e. fleas and ticks) is a desirable property of ectoparasiticides for veterinary use. In the following table 1 comparative experimental data of the in vitro assays are shown regarding flea membrane feeding (ingestion, blood feeding) activity against Ctenocephalides felis and contact activity against Rhipicephalus sanguineus.

For assay [2] the test system is unchanged. Put plainly: Contact activity against adult Ctenocephalides felis (treated surface, motility by machine vision, 24 h). Particulars: read-out: EC80 (% motility reduction, adult C. felis, contact). From the text: Example 7: Screening Method to Test Contact Activity of Compounds of Formula (I) Against Adult Ctenocephalides felis
For a further assay, the system named is Plutella xylostella. Put plainly: Insecticidal test on Plutella xylostella (Chinese cabbage seedling dip). The following applies: 144 h, read-out: activity level (corrected mortality rate), Plutella xylostella. Here is the method:
Example 12: Insecticidal Test on Plutella xylostella
(§3) The compounds of formula (I) of the present invention or salts thereof were separately dispersed in water and diluted to 500 ppm. Ten adults of Plutella xylostella were released onto Chinese cabbage seedlings and allowed to lay eggs thereon. 2 days after the release of the adults, the seedling was dipped in the dispersion for about 30 seconds. After air dried, the seedling was kept in a room at 25° C. 6 days after the dip treatment, the numbers of the dead and alive insects were counted. The corrected mortality rate was calculated according to the following formula and the insecticidal activity was evaluated according to the following criteria. Corrected mortality rate (%)=100×(Survival rate in an untreated plot−Survival rate in a treated plot)/Survival rate in an untreated plot • A: the corrected mortality rate is 100% • B: the corrected mortality rate is 90 to 99% • C: the corrected mortality rate is 80 to 89% • D: the corrected mortality rate is 50 to 79%

For the next assay, the system named is Myzus persicae. Kind of assay: Insecticidal test on Myzus persicae (foliar application on potted Chinese cabbage). Particulars: 144 h, 500 ppm, foliar application, 6 days after application, read-out: control efficacy level (control rate), Myzus persicae. The text has this: Example 14: Insecticidal Test on Myzus persicae
The compounds of formula (I) of the present invention or salts thereof were separately dispersed in water and diluted to 500 ppm. Chinese cabbage plants were planted in plastic pots (diameter: 8 cm, height: 8 cm). Aphids (Myzus persicae) were propagated on the plants and then the number of surviving aphids was counted. The dispersion was applied to the foliage of the potted plants. After the plants were air dried, these were kept in a greenhouse. 6 days after the application, the number of the alive insects was counted on the plants. The control rate was calculated according to the following formula and the control efficacy was evaluated according to the following criteria. Control rate (%)=100−{(T×Ca)/(Ta×C)}×100 • Ta: the number of alive insects before the foliar application in a treated plot • T: the number of alive insects after the foliar application in a treated plot • Ca: the number of alive insects before the foliar application in an untreated plot • C: the number of alive insects after the foliar application in an untreated plot • A: the control rate is 100% • B: the control rate is 90 to 99% • C: the control rate is 80 to 89% • D: the control rate is 50 to 79%

Assay [3] has as its system Laodelphax striatellus 3rd-instar nymphs. Kind of assay: Insecticidal test on Laodelphax striatellus (rice seedling dip). Particulars: 192 h, read-out: activity level (corrected mortality rate), Laodelphax striatellus. As for the experimental part:
Example 13: Insecticidal Test on Laodelphax striatellus
as §3, with “Rice plant seedlings” for “Ten adults of Plutella xylostella”, “were” for “were released onto Chinese cabbage seedlings and allowed to lay eggs thereon. 2 days after the release of the adults, the seedling was”, “seedlings were put into a separate glass test tube and inoculated with ten 3rd-instar nymphs of Laodelphax striatellus and then the glass test tube” for “seedling”, “8” for “6”, “inoculation,” for “dip treatment,”

The subject of assay [4] is adult Rhipicephalus sanguineus ticks. Put plainly: Contact activity against adult Rhipicephalus sanguineus (coated vial, mortality at 48 h). Particulars: Rhipicephalus sanguineus. As for the experimental part:
Example 5: Screening Method to Test Contact Activity of Compounds of Formula (I) Against Adult Rhipicephalus sanguineus
Compounds of formula (I) formulated in 100% DMSO were diluted in a solution containing acetone and Triton X-100 (0.02%). The resulting formulation was used to coat the inner walls of glass scintillation vials and the filter paper covering the cap of the vial. Once dried, ten adult R. sanguineus ticks were added to the vials. The vials were incubated at 24° C., 95% relative humidity, and 12 hours of light/12 hours of dark until evaluation. Ticks were visually evaluated for mortality at 48 hours post-treatment. Compound efficacy at a given dose is expressed as percentage mortality. A dose response series was implemented to determine EC50 values.
as §1, §2

The mark [5] stands for this setting: bovine blood, 24h post treatment, read-out: EC80 (% motility reduction, adult C. felis, ingestion via membrane feeding).
The mark [6] stands for this setting: 500 ppm, seedling dip, 6 days after dip treatment.
Where [7] appears, read: 500 ppm, seedling dip, 8 days after inoculation.
[8] abbreviates: 48 hours post-treatment, coated vial, read-out: EC50 (percentage mortality, adult R. sanguineus, contact).

On to `CCS(=O)(=O)c1cc(-c2cnc(C3CC3)nc2)cnc1-c1nc2cc(C(F)(F)C(F)(F)F)nnc2n1C` [Compound 93, 2-cyclopropyl-5-[5-(ethanesulfonyl)-6-[7-methyl-3-(1,1,2,2,2-pentafluoroethyl)imidazo[4,5-c]pyridazin-6-yl]pyridin-3-yl]pyrimidine], for which the EC80 in assay [1] (setting [5]) is 1 to 10 µM; in assay [2] (treated surface, 24h) it was below 1 µM.

`CCn1cc(C(F)(F)F)cc2nc(-c3ncc(-c4ncc(C5CC5)cn4)cc3S(=O)(=O)CC)cc1-2` [Compound 92, 5-cyclopropyl-2-[5-(ethanesulfonyl)-6-[4-ethyl-6-(trifluoromethyl)pyrrolo[3,2-b]pyridin-2-yl]pyridin-3-yl]pyrimidine]: the EC80 in assay [2] (treated surface, 24h) was in the range of 1 to 10 µM. Besides, the mortality at 500 ppm with Plutella xylostella (setting [6]) came out at 100%. For the same compound, the pest or weed control at 500 ppm in the assay with Myzus persicae was 100%.

For the compound `CCn1cc(C(F)(F)F)cc2nc(-c3ncc(-c4ccc(C5CC5)cc4)cc3S(=O)(=O)CC)cc1-2` [Compound 6, 5-(4-cyclopropylphenyl)-3-(ethanesulfonyl)-2-[4-ethyl-6-(trifluoromethyl)pyrrolo[3,2-b]pyridine-2-yl]pyridine], the EC80 in assay [2] (treated surface, 24h) was in the range of 1 to 10 µM. Further, in the assay on Plutella xylostella (setting [6]), the mortality at 500 ppm came to 100%.

For `CCS(=O)(=O)c1cc(-c2ccc(C3CC3(F)F)cc2)cnc1-c1nc2cc(C(F)(F)C(F)(F)F)cnc2n1C` (centres unmarked) [compound 134], the EC80 in assay [1] (24 h, flea membrane feeding (ingestion, blood feeding) assay, EC80, read-out: C. felis membrane feeding (ingestion/blood feeding) activity EC80) was 1 to 10 µM; in assay [1] (setting [5]), 1 to 10 µM; in assay [2] (treated surface, 24h) it was 1 to 10 µM. In addition, the mortality at 500 ppm (in assay [3] (setting [7]); with Plutella xylostella (setting [6])) was 100% each time. The EC50 in assay [4] (setting [8]) lay in the range of 10 to 100 µM; in assay [4] (contact assay, >100 μM = not active at the top concentration, read-out: R. sanguineus contact activity EC50) it was 10 to 100 µM. Also, the pest or weed control at 500 ppm in the assay on Myzus persicae stood at 100%.

In the case of `CCS(=O)(=O)c1cc(-c2ccc(C3CC3)cc2)cnc1-c1ncc(OCC(F)(F)C(F)(F)F)c(=O)n1C` [Compound 110, 2-[5-(4-cyclopropylphenyl)-3-(ethanesulfonyl)pyridin-2-yl]-3-methyl-5-(2,2,3,3,3-pentafluoropropoxy)pyrimidin-4-one], the EC80 in assay [2] (treated surface, 24h) was in the range of 1 to 10 µM.

`CCS(=O)(=O)c1cc(-c2ccc(C3(C)CC3)cc2)cnc1-c1nc2cc(C(F)(F)C(F)(F)F)nnc2n1C` [compound 154]: the EC80 in assay [2] (treated surface, 24h) was 1 to 10 µM. Moreover, the 50% effective concentration (EC50) in assay [4] (setting [8]) lay within 10 to 100 µM. The mortality at 500 ppm with Plutella xylostella (setting [6]) was 100%. Also, the pest or weed control at 500 ppm in the assay on Myzus persicae worked out at 100%.

For `CCS(=O)(=O)c1cc(-c2ccc(C3CC3)cc2)cnc1-c1nc(-c2cc(C(F)(F)F)ccn2)cn1C` [Compound 55, 5-(4-cyclopropylphenyl)-3-(ethanesulfonyl)-2-[1-methyl-4-[4-(trifluoromethyl)pyridin-2-yl]imidazol-2-yl]pyridine], the mortality at 500 ppm (in assay [3] (setting [7]); in the assay on Plutella xylostella (setting [6])) was 100% throughout. Besides, the pest or weed control at 500 ppm in the assay on Myzus persicae stood at 100%.

As to `CCS(=O)(=O)c1cc(-c2ccc(C3CC3)cc2)cnc1-c1ccc(OCC(F)(F)C(F)(F)F)nn1` [Compound 126, 3-[5-(4-cyclopropylphenyl)-3-(ethanesulfonyl)pyridin-2-yl]-6-(2,2,3,3,3-pentafluoropropoxy)pyridazine], the mortality at 500 ppm (in assay [3] (setting [7]); with Plutella xylostella (setting [6])) was 100% in each case. Moreover, the EC50 in assay [4] (setting [8]) was below 10 µM. Further, in the assay with Myzus persicae, the pest or weed control at 500 ppm was found to be 100%.

Take `CCS(=O)(=O)c1cc(-c2cnnc(C3CC3)c2)cnc1-c1nc2cc(C(F)(F)C(F)(F)F)cnc2n1C` [Compound 195, 3-cyclopropyl-5-[5-(ethanesulfonyl)-6-[3-methyl-6-(1,1,2,2,2-pentafluoroethyl)imidazo[4,5-b]pyridin-2-yl]pyridin-3-yl]pyridazine]: the EC80 in assay [1] (setting [5]) is below 1 µM. Besides, the mortality at 500 ppm (in assay [3] (setting [7]); in the assay with Plutella xylostella (setting [6])) was 100% throughout.

Regarding `CCS(=O)(=O)c1cc(-c2ccc(C3CC3)cc2)cnc1-c1nc2cc(C(F)(F)F)cnc2o1` [Compound 40, 5-(4-cyclopropylphenyl)-3-(ethanesulfonyl)-2-[6-(trifluoromethyl)-[1,3]oxazolo[5,4-b]pyridin-2-yl]pyridine], in assay [2] (treated surface, 24h), the EC80 fell in the range of 1 to 10 µM. Also, the mortality at 500 ppm in the assay with Plutella xylostella (setting [6]) was determined as 100%.

For the compound `CCS(=O)(=O)c1cc(-c2cc(C3CC3)ccn2)cnc1-c1nc2cc3c(cc2n1C)OC(F)(F)O3` [Compound 14, 6-(4-cyclopropyl-5′-(ethylsulfonyl)-[2,3′-bipyridin]-6′-yl)-2,2-difluoro-5-methyl-5H-[1,3]dioxolo[4′,5′:4,5]benzo[1,2-d]imidazole], the EC80 in assay [2] (treated surface, 24h) fell in the range of 1 to 10 µM.

Consider `CCS(=O)(=O)c1cc(-c2cccnc2C2CC2)cnc1-c1nc2cc(C(F)(F)C(F)(F)F)nnc2n1C` [compound 138], for which the EC80 was below 1 µM in assay [1] (setting [5]) and below 1 µM in assay [2] (treated surface, 24h). Moreover, the mortality at 500 ppm (in assay [3] (setting [7]); in the assay with Plutella xylostella (setting [6])) was 100% in each case. Further, in the assay with Myzus persicae, the pest or weed control at 500 ppm turned out to be 100%.

Take `CCS(=O)(=O)c1cc(-c2ccc(C3CC3)cc2)cnc1-c1cc2n(C(C)C)cc(C(F)(F)F)cc-2n1` [Compound 100, 5-(4-cyclopropylphenyl)-3-(ethanesulfonyl)-2-[4-isopropyl-6-(trifluoromethyl)pyrrolo[3,2-b]pyridin-2yl]pyridine]: the mortality at 500 ppm (in assay [3]; in the assay on Plutella xylostella) was 100% throughout. The EC80 in assay [2] (24 h) lay within 1 to 10 µM. Further, in assay [4] (48 h, read-out: EC50 (percentage mortality, adult R. sanguineus, contact)), the EC50 is below 10 µM.

`CCn1c(=O)c(C(F)(F)F)cc2nc(-c3ncc(-c4ccc(C5CC5)cc4)cc3S(=O)(=O)CC)n(C)c21` [compound 125]: the EC80 in assay [2] (treated surface, 24h) was 1 to 10 µM. For the same compound, the pest or weed control at 500 ppm in the assay on Myzus persicae came out at 100%.
